Data as given in US11883505B2, “Anticancer drug-containing plant virus particles” (CASE WESTERN RESERVE UNIVERSITY, priority 2015, dated 2024).

How the values were obtained:
MDA-MB-231 xenografts = experiment: Treatment of MDA-MB-231 xenografts in NCR nu/nu mice; type: in vivo, mouse; conditions: 1.0 mg/kg (normalized to platinum or TMV content), weekly intravenous bolus
Description: FIGS. 7A-C show treatment of MDA-MB-231 xenografts in an athymic mouse model. […] Tumor volumes were monitored daily, and total volume was normalized to initial tumor size at time of treatment. Each treatment group consists of 5 animals (n=5); *indicates p<0.05.
All animal studies were carried using IACUC-approved procedures. […] The dosage was normalized to platinum or TMV content.

[1] = tested on: OV81.2 (ovarian cancer, primary patient cells); experiment: MTT assay, primary patient ovarian cancer cells; type: cell-based, human; conditions: primary patient cells OV81.2
Description: (§1) The assay was performed as per manufacturer's recommendation; a BioTek Synergy HT multidetection microplate reader was used for read-out.

[2] = tested on: A2780/CP70 (ovarian cancer resistant to cisplatin); experiment: MTT assay, ovarian cancer cells resistant to cisplatin; type: cell-based, human; conditions: ovarian cancer cells resistant to cisplatin treatment
Description: as §1

Row | Compound | tumor growth / treatment effect (MDA-MB-231 xenografts) | efficacy versus cisplatin [1] | efficacy versus cisplatin [2]
1 | N.N.[Cl][Pt][Cl] [cisplatin] | ineffective |  | 
2 | phenanthriplatin | ineffective | Enhanced efficacy | enhanced efficacy
